These results are taken from patent US10016383B2, “Inhibitors of metallo-β-lactamase-enzymes” (McMaster University, priority 2013, dated 2018).

Assay [1] deals with panel of 16 clinical CRE isolates. Put plainly: FIC index determination. In kind it is cell-based, Enterobacteriaceae. Conditions: meropenem and AM-A combinations; ≤0.5 defined as synergistic. As for the experimental part: FIC values were determined by standard methods^27 setting up checkerboards with 8 concentrations of each meropenem and AM-A in serial ½ dilutions. Experiments were done in duplicate and the mean used for calculation. The MIC for each compound was the lowest concentration of compound showing no growth. The FIC for each compound was calculated as the concentration of the compound in the presence of co-compound for a well showing no growth, divided by the MIC for that compound. The FIC index is the sum of the two FICs.

The next assay concerns the target T1, ACE from rabbit lung (Oryctolagus cuniculus, UniProt P12822).
T1 construct: as well as ACE from rabbit lung; from tissue; host or cells: rabbit lung
In words: IC50 enzyme inhibition assay, FAPGG reporter substrate. In kind it is biochemical. Conditions: concentration-response assays. The protocol:
Enzyme (NDM-1, 5 nM; VIM-2, 500 pM; CTX-M-15, 500 pM; KPC-2, 5 nM; OXA-48, 1 nM; TEM-1, 100 pM; ACE, 50 nM) was mixed with 30 μM nitrocefin (100 μM nitrocefin for TEM-1; 250 µM furanacryloyl-L-phenylalanylglycylglycine [FAPGG] for ACE^24) after a 5-10 minute preincubation with AM-A. Metallo-enzymes were supplemented with 10 μM ZnSO4. Assays were read in 96-well microplate format at 490 nm using a Spectramax reader (Molecular Devices) at 30-37° C.
E. coli strain BW25113 was modified by deletion of the bamB and tolC genes so as to increase permeability to and reduce efflux of small molecules. This strain was then further modified by the single-copy chromosomal insertion of the blaNDM-1 gene under control of the pLac promoter. Microbial natural product extracts were screened against this strain in the presence of sublethal ¼ MIC meropenem. AM-A was purified from a hit extract and its structure elucidated by NMR, mass spectrometry and polarimetry. IC50 values for AM-A were determined using nitrocefin (for MBLs and Ser BLs) and furanacryloyl-L-phenylalanylglycylglycine (for ACE)^21 as reporter substrates against the following purified enzymes: MBLs IMP-7, VIM-2, and NDM-1; SBLs CTX-M-15, KPC-2, OXA-48, and TEM-1; as well as ACE from rabbit lung. […] FIC values were determined using standard methods^27. […]

The subject of assay [2] is E. coli BW25113ΔbamBΔtolCΔaraDAB::pLac(blaNDM-1). Put plainly: Cell-based screen for NDM-1 inhibitors with sub-lethal meropenem. Set-up: species or system Escherichia coli. Conditions: in combination with meropenem. The protocol:
A cell-based screen for inhibitors of the NDM-1 metallo-β-lactamase using a collection of natural product extracts derived from environmental microorganisms was performed. To increase the sensitivity of the screen to MBL inhibitor discovery a test strain of Escherichia coli BW25113 in which the bamB and tolC genes were independently deleted (E. coli BW25113ΔbamBΔtolC) was generated. BamB is involved in outer membrane porin assembly and disruption results in increased permeability to small molecules^19 and TolC is a part of the tripartite small molecule efflux systems such as AcrA-AcrB-TolC that serve to actively eliminate small molecules from the cell^20. Therefore, E. coli BW25113ΔbamBΔtolC increases the sensitivity of the screen to discovery of “hits”. This strain was further modified by integrating the blaNDM-1β-lactamase gene under control of the pLac promoter into the chromosome [E. coli BW25113ΔbamBΔtolCΔaraDAB::pLac(blaNDM-1)]. This strain was screened in the presence of a sub-lethal concentration of meropenem (of the minimum inhibitory concentration 0.125 μg/mL) in combination with ˜500 natural product extracts.
˜500 natural product extracts were screened against E. coli BW25113ΔbamBΔto1CΔaraDAB::pLac(blaNDM-1) in combination with 0.125 μg/mL meropenem. […] Z′ was determined to be 0.77, indicating an excellent screening window^22.

The target in the next assay is NDM-1 (Klebsiella pneumoniae, UniProt C7C422). Put plainly: Inactivation kinetics. It counts as biochemical. Also noted: All β-lactamase overexpression constructs were generated without the leader peptide in a pET-28b plasmid containing a N-terminal His Tag; His tag (N, cleaved yes); SUMO (implied by the use of SUMO protease) (N, cleaved yes); made in house; host or cells: E. coli BL21(DE3). As for the experimental part:
NDM-1 (50 nM) was added to 20 μM nitrocefin containing AM-A in serial ½ dilutions from 8 μM. The assay was performed in 50 mM HEPES pH 7.5, 200 μL final volume. The assay was read in 96-well microplate format at 490 nm using a Spectramax reader (Molecular Devices) for 10 minutes at 37° C. VIM-2 (10 nM) was added to 20 μM nitrocefin containing AM-A in serial ½ dilutions from 16 μM. The assay was performed in 50 mM HEPES pH 7.5, 200 μL final volume. The assay was read in 96-well microplate format at 490 nm using a Spectramax reader (Molecular Devices) for 10 minutes at 37° C. as reported previously. For all assays experiments the offset between reaction initiation and the first read was ˜6s.
Rate constants characterizing the inactivation of enzyme were calculated based on the dependence of the pseudo-first order rate constant, ki, upon AM-A concentration according to the following model:
[formula] where E•Zn, A, E•Zn•A, and Zn•A are the active metalloenzyme, AM-A, the ternary metalloenzyme-AM-A complex, and AM-A-metal complex, respectively. Ki represents the dissociation constant of the ternary complex and k+2 is the rate constant for dissociation of ternary complex into inactivated enzyme (Einact) and AM-A-Zn complex. […]
[formula] […] The individual values of Ki and k+2 were determined by fitting the value of ki to equation 2 as described previously^25: […]

NDM-1, sequence (C7C422 29-270 limits assumed): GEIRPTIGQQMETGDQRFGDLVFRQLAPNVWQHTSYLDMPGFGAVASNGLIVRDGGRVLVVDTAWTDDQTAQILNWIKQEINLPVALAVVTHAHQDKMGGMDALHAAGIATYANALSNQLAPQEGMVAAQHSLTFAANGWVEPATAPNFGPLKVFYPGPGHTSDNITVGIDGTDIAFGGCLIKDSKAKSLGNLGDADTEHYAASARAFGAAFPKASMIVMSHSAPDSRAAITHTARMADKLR
T1 sequence (P12822 34-1310): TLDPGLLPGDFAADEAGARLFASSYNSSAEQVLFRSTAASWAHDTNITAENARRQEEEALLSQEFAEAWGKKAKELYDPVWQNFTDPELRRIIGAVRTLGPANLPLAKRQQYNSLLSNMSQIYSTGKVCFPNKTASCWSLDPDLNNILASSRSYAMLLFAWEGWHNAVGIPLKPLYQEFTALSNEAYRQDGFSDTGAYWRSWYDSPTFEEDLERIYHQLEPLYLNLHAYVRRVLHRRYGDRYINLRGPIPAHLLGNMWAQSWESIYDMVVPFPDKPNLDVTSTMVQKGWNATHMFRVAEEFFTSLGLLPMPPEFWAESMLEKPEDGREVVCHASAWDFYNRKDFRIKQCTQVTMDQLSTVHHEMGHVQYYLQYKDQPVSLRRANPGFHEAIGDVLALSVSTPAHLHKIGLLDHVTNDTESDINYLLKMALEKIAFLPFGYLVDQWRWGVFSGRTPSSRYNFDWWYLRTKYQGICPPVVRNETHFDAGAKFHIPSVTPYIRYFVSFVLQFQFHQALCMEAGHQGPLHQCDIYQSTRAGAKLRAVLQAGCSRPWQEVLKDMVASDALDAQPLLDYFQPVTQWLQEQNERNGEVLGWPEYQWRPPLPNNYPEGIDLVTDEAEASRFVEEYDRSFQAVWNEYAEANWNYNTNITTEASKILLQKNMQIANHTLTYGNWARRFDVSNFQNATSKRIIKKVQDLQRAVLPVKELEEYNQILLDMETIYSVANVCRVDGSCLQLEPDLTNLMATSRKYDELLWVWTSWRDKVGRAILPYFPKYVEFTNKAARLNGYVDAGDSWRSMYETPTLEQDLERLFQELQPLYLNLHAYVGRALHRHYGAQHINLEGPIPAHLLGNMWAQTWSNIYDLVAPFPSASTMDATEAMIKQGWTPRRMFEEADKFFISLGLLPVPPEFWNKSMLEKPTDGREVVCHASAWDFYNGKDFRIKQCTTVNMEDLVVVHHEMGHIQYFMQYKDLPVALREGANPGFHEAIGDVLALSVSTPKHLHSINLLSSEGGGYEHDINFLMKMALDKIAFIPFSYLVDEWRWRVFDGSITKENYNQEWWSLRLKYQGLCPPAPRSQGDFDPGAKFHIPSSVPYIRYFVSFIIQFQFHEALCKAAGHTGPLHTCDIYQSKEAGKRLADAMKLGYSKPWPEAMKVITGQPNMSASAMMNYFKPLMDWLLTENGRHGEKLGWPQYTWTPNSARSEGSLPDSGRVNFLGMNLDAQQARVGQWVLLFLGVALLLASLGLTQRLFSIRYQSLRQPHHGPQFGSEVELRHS

For `N[C@H](CN[C@H](CN[C@@H](CC(=O)O)C(=O)O)C(=O)O)C(=O)O` [AM-A, aspergillomarasmine A], the “Fractional inhibitory concentration (FIC) index” value in assay [1] is recorded as less than 0.1. Moreover, the “reduction of activity of rabbit lung ACE” value at ACE from rabbit lung is approximately 35%. Further, in assay [2], the “restoration of meropenem antibiotic activity” value is “restored meropenem activity”. On NDM-1, the Ki came out at 11 nM. For the same compound, the “k+2 (inactivation rate constant)” value at NDM-1 (time-dependent inactivation) was determined as 0.0062 s⁻¹.
